Experimental data as given in ChEMBL document CHEMBL3272151, “Quantitative structure-activity relationship of chymotrypsin-ligand interactions” (J Med Chem, 1977).

Legend:
Settings in all cases: Homo sapiens
[1] = Binding affinity to chymotrypsin (unknown origin)
[2] = Binding affinity to chymotrypsin (unknown origin) assessed as hydrolysis
[3] = Binding affinity to chymotrypsin (unknown origin) assessed as deacetylation

Row | Structure (SMILES) | log(1/Km) [1] | logKcat [2] | log K [3] | other results
1 | COC(=O)[C@H](C)NC(=O)c1ccccn1 | 1.74 | -1.15 |  | 
2 | CCC(=O)NCC(=O)Oc1ccc([N+](=O)[O-])cc1 | 3.95 |  | -0.25 | 
3 | COC(=O)[C@@H](Cc1ccccc1)NC(C)=O |  |  |  | log1/Ki [1]: 2.64
4 | COCC(=O)Oc1ccc([N+](=O)[O-])cc1 |  |  | -0.46 | 
5 | O=C(N[C@@H](Cc1ccccc1)C(=O)Oc1ccc([N+](=O)[O-])cc1)OCc1ccccc1 | 6.32 |  | 1.59 | 
6 | CC(C)CC(=O)Oc1ccc([N+](=O)[O-])cc1 |  |  | -2.9 | 
7 | COC(=O)[C@@H](C)NC(=O)c1cccs1 | 2.16 |  |  | 
8 | CCOC(=O)C[C@H](NC(C)=O)C(=O)OCC | 1.64 |  |  | 
9 | CS(=O)(=O)N[C@@H](Cc1ccccc1)C(=O)Oc1ccc(Cl)cc1 | 4.88 |  |  | log K [2]: 1.56
10 | CC[C@@H](C)OC(=O)CNC(=O)c1ccccc1 | 2.7 |  |  | 
11 | CC(C)C(=O)Oc1ccc([N+](=O)[O-])cc1 |  |  | -2.45 | 
12 | COC(=O)[C@H](C)NC(=O)c1ccccc1N | 2.33 | -0.62 |  | 
13 | O=C(CCc1c[nH]c2ccccc12)Oc1ccc([N+](=O)[O-])cc1 |  |  | -0.47 | 
14 | CCOC(=O)[C@@H](NC(C)=O)c1ccccc1 | 2.48 | -0.05 |  | 
15 | CCC[C@@H](NC(=O)CCl)C(=O)OC |  |  |  | log1/Ki [1]: 1.23
16 | Nc1ccc(OC(=O)CNC(=O)c2ccccc2)cc1 | 3.77 | -0.3 |  | 
17 | CC(C)C[C@H](NC(=O)OCc1ccccc1)C(=O)Oc1ccc([N+](=O)[O-])cc1 | 5.32 |  | 0.92 | 
18 | CC(C)COC(=O)CNC(=O)c1ccccc1 | 2.62 | -0.78 |  | 
19 | CC(C)(C)C(=O)Oc1ccc([N+](=O)[O-])cc1 |  |  | -3.69 | 
20 | CC(=O)Oc1ccc([N+](=O)[O-])cc1 |  |  | -2 | 
21 | O=C(CI)Oc1ccc([N+](=O)[O-])cc1 |  |  | -0.1 | 
22 | C[C@@H](NC(=O)OCc1ccccc1)C(=O)Oc1ccc([N+](=O)[O-])cc1 | 5.08 |  | -1.05 | 

Row | Structure (SMILES) | log(1/Km) [1] | logKcat [2] | log K [3] | other results
23 | NC(=O)C[C@H](NC(=O)OCc1ccccc1)C(=O)Oc1ccc([N+](=O)[O-])cc1 | 4.87 |  | 1.53 | 
24 | COC(=O)[C@H](NC(=O)c1ccccc1)C(C)C |  |  |  | log1/Ki [1]: 2.28
25 | CC(C)[C@H](NC(=O)OCc1ccccc1)C(=O)Oc1ccc([N+](=O)[O-])cc1 | 4.75 |  | -0.93 | 
26 | COC(=O)[C@H](C)NC(=O)c1ccccc1 | 2.01 | -0.64 |  | 
27 | CCC[C@H](NC(C)=O)C(=O)OC(C)C | 1.51 | 0.46 |  | 
28 | CCCC[C@H](NC(=O)OCc1ccccc1)C(=O)Oc1ccc([N+](=O)[O-])cc1 | 5.24 |  | 1.1 | 
29 | CC(=O)N[C@H](C(=O)OCCCl)C(C)C | 1.72 | -0.64 |  | 
30 | CCCCOC(=O)CNC(=O)c1ccccc1 | 2.95 | -0.76 |  | 
31 | CC(C)(C)CC(=O)Oc1ccc([N+](=O)[O-])cc1 |  |  | -3.82 | 
32 | C[C@@H](NC=O)C(=O)Oc1ccc([N+](=O)[O-])cc1 | 5.21 |  | -1.14 | 
33 | C[C@H](NC=O)C(=O)Oc1ccc([N+](=O)[O-])cc1 | 4.88 |  | -0.61 | 
34 | CC[C@@H](C)OC(=O)[C@H](Cc1ccccc1)NC(C)=O | 2.76 | 1.98 |  | 
35 | CC[C@@H](NC(=O)OCc1ccccc1)C(=O)Oc1ccc([N+](=O)[O-])cc1 | 5.71 |  | -1.45 | 
36 | CC(=O)c1ccc(OC(=O)CNC(=O)c2ccccc2)cc1 | 4.51 | -0.28 |  | 
37 | CC(=O)N[C@@H](Cc1ccccc1)C(=O)O[C@@H](C)c1ccccc1 | 4.22 | 2.04 |  | 
38 | O=C(CCCCCl)Oc1ccc([N+](=O)[O-])cc1 |  |  | -1.37 | 
39 | O=C(CNC(=O)c1ccccc1)Oc1cccc([N+](=O)[O-])c1 | 4.17 | -0.28 |  | 
40 | COC(=O)[C@H](C)NC(=O)c1cccs1 | 1.82 | -0.34 |  | 
41 | NC(=O)C[C@@H](NC(=O)OCc1ccccc1)C(=O)Oc1ccc([N+](=O)[O-])cc1 | 5.84 |  | -1.65 | 
42 | CCC(=O)Oc1ccc([N+](=O)[O-])cc1 |  |  | -2.1 | 
43 | CS(=O)(=O)N[C@@H](Cc1ccccc1)C(=O)Oc1ccc([N+](=O)[O-])cc1 | 5.37 |  |  | log K [2]: 1.56
44 | CCC[C@H](NC(=O)CCl)C(=O)OC | 2.3 |  |  | 

Row | Structure (SMILES) | log(1/Km) [1] | logKcat [2] | log K [3] | other results
45 | COC(=O)[C@@H](C)NC(=O)c1ccncc1 | 1.57 |  |  | 
46 | COc1ccc(OC(=O)CNC(=O)c2ccccc2)cc1 | 3.99 | -0.25 |  | 
47 | CC(=O)N[C@@H](C)C(=O)Oc1ccc([N+](=O)[O-])cc1 | 3.32 |  |  | 
48 | CCOC(=O)CNC(=O)c1ccccc1 | 2.64 |  |  | 
49 | COC(=O)[C@@H](C)NC(=O)c1ccccc1 | 2.48 |  |  | 
50 | O=C(Cc1c[nH]c2ccccc12)Oc1ccc([N+](=O)[O-])cc1 |  |  | -2.52 | 
51 | CCC[C@@H](NC(C)=O)C(=O)OC |  |  |  | log1/Ki [1]: 0.95
52 | CCC[C@@H](NC(=O)OCc1ccccc1)C(=O)Oc1ccc([N+](=O)[O-])cc1 | 5.5 |  | -0.82 | 
53 | CC(=O)N[C@@H](Cc1ccccc1)C(=O)Oc1ccc([N+](=O)[O-])cc1 | 4.62 | 1.89 |  | 
54 | CC(=O)c1ccc(OC(=O)[C@H](Cc2ccccc2)NS(C)(=O)=O)cc1 | 4.89 | 1.54 |  | 
55 | CC[C@H](NC(=O)OCc1ccccc1)C(=O)Oc1ccc([N+](=O)[O-])cc1 | 5.74 |  | 0.43 | 
56 | COC(=O)[C@@H](Cc1ccccc1)NC=O | 3.6 |  |  | 
57 | O=C(Oc1ccc([N+](=O)[O-])cc1)c1cccc([N+](=O)[O-])c1 |  |  | -2.85 | 
58 | Cc1ccc(OC(=O)[C@H](Cc2ccccc2)NS(C)(=O)=O)cc1 | 4.7 |  |  | log K [2]: 1.56
59 | COC(=O)[C@@H](C)NC(=O)c1cccnc1 | 2.22 |  |  | 
60 | O=C(CNC(=O)c1ccccc1)Oc1ccc(Cl)cc1 | 3.94 | -0.31 |  | 
61 | Cc1ccc(OC(=O)CNC(=O)c2ccccc2)cc1 | 3.87 | -0.21 |  | 
62 | CCCOC(=O)CNC(=O)c1ccccc1 | 2.72 | -0.9 |  | 
63 | O=C(CNC(=O)c1ccccc1)Oc1ccc([N+](=O)[O-])cc1 | 4.06 | -0.31 |  | 
64 | CC(C)C[C@@H](NC(=O)OCc1ccccc1)C(=O)Oc1ccc([N+](=O)[O-])cc1 | 5.62 |  | -0.96 | 
65 | COC(=O)[C@H](CC1CCCCC1)NC(C)=O | 3.72 | 1.18 |  | 
66 | C[C@H](NC(=O)OCc1ccccc1)C(=O)Oc1ccc([N+](=O)[O-])cc1 | 4.7 |  | 0.48 | 

Row | Structure (SMILES) | log(1/Km) [1] | logKcat [2] | log K [3] | other results
67 | O=C(Cc1ccccc1)Oc1ccc([N+](=O)[O-])cc1 |  |  | -1.65 | 
68 | O=C(CCCc1ccccc1)Oc1ccc([N+](=O)[O-])cc1 |  |  | -0.87 | 
69 | COC(=O)[C@H](C)NC(=O)c1cccnc1 | 1.43 | -0.24 |  | 
70 | O=C(CNC(=O)c1ccccc1)Oc1ccccc1 | 3.87 | -0.31 |  | 
71 | CC[C@H](C)OC(=O)CNC(=O)c1ccccc1 | 2.95 | -1.04 |  | 
72 | COC(=O)[C@H](C)NC(=O)c1ccc2ccccc2n1 | 3.66 | -2.4 |  | 
73 | CCCCC(=O)Oc1ccc([N+](=O)[O-])cc1 |  |  | -1.77 | 
74 | O=C(CCc1ccccc1)Oc1ccc([N+](=O)[O-])cc1 |  |  | -0.73 | 
75 | O=COc1ccc([N+](=O)[O-])cc1 |  |  | 0.39 | 
76 | CCCCCCCC(=O)Oc1ccc([N+](=O)[O-])cc1 |  |  | -1.47 | 
77 | O=C(CNC(=O)c1ccccc1)Oc1ccc(F)cc1 | 3.85 | -0.28 |  | 
78 | CCCCCC[C@H](NC(C)=O)C(=O)OC | 2.53 | 0.79 |  | 
79 | CCCCCC(=O)Oc1ccc([N+](=O)[O-])cc1 |  |  | -1.44 | 
80 | COC(=O)[C@@H](C)NC(=O)c1ccccc1N | 2.8 |  |  | 
81 | COC(=O)[C@@H](C)NC(=O)c1ccccn1 | 1.77 |  |  | 
82 | COC(=O)[C@H](C)NC(C)=O | 0.21 | 0.11 |  | 
83 | CC(=O)NCCCC(=O)Oc1ccc([N+](=O)[O-])cc1 |  |  | -2.21 | 
84 | CS(=O)(=O)N[C@@H](Cc1ccccc1)C(=O)Oc1ccccc1 | 4.57 | 1.51 |  | 
85 | O=C(CCCCl)Oc1ccc([N+](=O)[O-])cc1 |  |  | -1.27 | 
86 | CCOC(=O)[C@@H](Cc1ccc(O)cc1)NC(C)=O |  |  |  | log1/Ki [1]: 2.4
87 | CCOC(=O)[C@@H](Cc1ccc(O)cc1)NC(=O)c1cccnc1 |  |  |  | log1/Ki [1]: 3.1
88 | C[C@H](OC(=O)CNC(=O)c1ccccc1)c1ccccc1 | 3.77 | -0.13 |  | 

Row | Structure (SMILES) | log(1/Km) [1] | logKcat [2] | log K [3] | other results
89 | O=C(N[C@H](Cc1ccccc1)C(=O)Oc1ccc([N+](=O)[O-])cc1)OCc1ccccc1 | 6.42 |  | -0.74 | 
90 | CC(=O)N[C@@H](Cc1ccccc1)C(=O)O[C@H](C)c1ccccc1 | 4.3 | 2.02 |  | 
91 | CC(C)OC(=O)CNC(=O)c1ccccc1 | 2.69 | -1.32 |  | 
92 | O=C(CCCl)Oc1ccc([N+](=O)[O-])cc1 |  |  | -1.67 | 
93 | CCCCCCC(=O)Oc1ccc([N+](=O)[O-])cc1 |  |  | -1.21 | 
94 | CCOC(=O)[C@H](C)NC(C)=O | 0.6 |  |  | 
95 | COC(=O)[C@H](NC(=O)CCl)C(C)C |  |  |  | log1/Ki [1]: 0.77
96 | CCCC(=O)NCC(=O)Oc1ccc([N+](=O)[O-])cc1 | 3.87 |  | -0.06 | 
97 | CC(C)[C@@H](NC(=O)OCc1ccccc1)C(=O)Oc1ccc([N+](=O)[O-])cc1 | 5.13 |  | -2.1 | 
98 | CCCC(=O)Oc1ccc([N+](=O)[O-])cc1 |  |  | -2.22 | 
99 | CCC[C@@H](NC(=O)c1ccccc1)C(=O)OC |  |  |  | log1/Ki [1]: 2.75
100 | O=C(CCCc1c[nH]c2ccccc12)Oc1ccc([N+](=O)[O-])cc1 |  |  | -0.83 | 
101 | COC(=O)[C@H](NC(C)=O)C(C)C |  |  |  | log1/Ki [1]: 0.71
102 | O=C(CCCCc1ccccc1)Oc1ccc([N+](=O)[O-])cc1 |  |  | -1.68 | 
103 | CCC[C@H](NC(=O)OCc1ccccc1)C(=O)Oc1ccc([N+](=O)[O-])cc1 | 5.57 |  | 0.19 | 
104 | O=C(CCl)Oc1ccc([N+](=O)[O-])cc1 |  |  | 0.47 | 
105 | O=CNCC(=O)Oc1ccc([N+](=O)[O-])cc1 | 4.8 |  | -0.61 | 
106 | O=C(CNC(=O)OCc1ccccc1)Oc1ccc([N+](=O)[O-])cc1 | 5.31 |  | -0.39 | 
107 | CC(=O)N[C@H](C(=O)Oc1ccc([N+](=O)[O-])cc1)C(C)C | 3.31 |  |  | 
